≈ marks a conversion by molar mass, not a printed value.
Key:
[1] = Glibenclamide solubility at various pH in PEG 300/ethanol/meglumine buffer (Table 2, FIG. 1); format: physicochemical; conditions: for solubility: aqueous with cosolvent or surfactant or cyclodextrin
Method: The solubility of glibenclamide was measured at various pH levels in the presence of different amounts of the buffer meglumine in solutions containing 40% PEG 300, 10% ethanol, and 50% water. […] The pH of the meglumine buffer was adjusted down from pH 11 to the target pH range of between about pH 8 to about pH 10.

[2] = pH after 50-fold dilution of glibenclamide 1 mg/ml concentrate into Hartmann's or NaCl; format: physicochemical; conditions: 1 mg/ml in PEG/Ethanol/Buffer (4/1/5)
Method: This was found even for experiments in which the concentration of buffer was reduced to 5 mM. In order to determine the final pH of diluted solutions resulting from high pH solutions having high concentrations of SUR-active compounds, measurements of the pH of glibenclamide solutions at various levels of dilution were made. […]

[3] = Stability of glibenclamide injection formulations on storage; format: physicochemical; conditions: formulation with 5 mM meglumine at pH 9
Method: Glibenclamide stability was investigated by storing several formulations under different conditions for long periods of time. In particular, glibenclamide formulations suitable for injection were stored for up to six months and stability data for these formulations was obtained over that period of time.
This study assessed the relative stability of 4 batches of glibenclamide formulations suitable for injection. The following studies were conducted.
All storage cabinets were continually monitored for temperature and humidity using calibrated probes. After removal from long-term storage, all samples were stored at 2-8° C. protected from light while awaiting analysis.
At each time point, 2 vials of glibenclamide injections will be removed from the storage cabinet from the appropriate conditions and allowed to equilibrate to ambient temperature. This will be used to perform the analyses described above and will be stored under normal laboratory conditions throughout the duration of the analyses.
The formulations were inspected visually for appearance and for the presence of particulates. The pH of duplicate samples from separate vials was measured to determine formulation pH and to track changes, if any, over the course of time during the stability experiments.

physchem = test: physchem
Method: The solubility of glibenclamide was tested in various solutions and at various pH.

[4] = Glibenclamide solubility in infusion fluids by HPLC, excess drug shaken 24 hours (Table 4); format: physicochemical; conditions: thermodynamic from solid, 24 hours ambient
Method: The solubility of glibenclamide was determined by high pressure liquid chromatography (HPLC) in a variety of infusion fluids. Excess glibenclamide was shaken with the vehicle for 24 hours at ambient temperature and the glibenclamide content of the supernatant determined by HPLC.
The following infusion vehicles were assessed in these experiments:
1.) 0.9% NaCl at the lowest end of the pH specification (pH 4.5) containing a 50-fold dilution of the PEG/ethanol/meglumine 10 mM pH 9.0 formulation.
2.) 0.9% NaCl at the lowest end of the pH specification (pH 4.5) containing a 50-fold dilution of the PEG/ethanol/diethanolamine 10 mM pH 9.0 formulation.
3.) 0.9% NaCl at the lowest end of the pH specification (pH 4.5) containing a 50-fold dilution of the PEG/ethanol/TRIS 10 mM pH 9.0 formulation.
4.) 0.9% NaCl at the lowest end of the pH specification (pH 4.5).
5.) 0.9% NaCl at the highest end of the pH specification (pH 7.0).
6.) 0.9% NaCl ‘as is’ (pH 5.8).
7.) 0.9% NaCl at the lowest end of the pH specification (pH 4.5) containing a 50-fold dilution of the PEG/ethanol formulation (without buffer or pH adjustment).
8.) 0.9% NaCl at the highest end of the pH specification (pH 7.0) containing a 50-fold dilution of the PEG/ethanol formulation (without buffer or pH adjustment).

solubility change with pH (FIG. 1) ([1]; 40% PEG 300, 10% ethanol, 50% water, meglumine buffer, basic pH values greater than about pH 8): greatly increased
solubility ([1]; PEG 300/ethanol/meglumine buffer solution, PEG 300/Ethanol/20 mM Meglumine 40%/10%/50% (final 10 mM), nominal pH 8.5, actual pH 5.4): 100 µg/mL (≈ 202 µM)
solubility ([1]; PEG 300/ethanol/meglumine buffer solution, PEG 300/Ethanol/20 mM Meglumine 40%/10%/50% (final 10 mM), nominal pH 9.0, actual pH 5.6): 130 µg/mL (≈ 263 µM)
solubility ([1]; PEG 300/ethanol/meglumine buffer solution, PEG 300/Ethanol/20 mM Meglumine 40%/10%/50% (final 10 mM), nominal pH 9.5, actual pH 6.4): 120 µg/mL (≈ 243 µM)
solubility ([1]; PEG 300/ethanol/meglumine buffer solution, PEG 300/Ethanol/100 mM Meglumine 40%/10%/50% (final 50 mM), nominal pH 9.5, actual pH 7.7): 410 µg/mL (≈ 830 µM)
solubility ([1]; PEG 300/ethanol/meglumine buffer solution, PEG 300/Ethanol/100 mM Meglumine 40%/10%/50% (final 50 mM), nominal pH 10.0, actual pH 8.8): 2740 µg/mL (≈ 5550 µM)
solubility ([1]; 40% PEG 300, 10% ethanol, 50% water with meglumine buffer, nominal pH 9 (pH 8.8)): 2700 µg/mL (≈ 5470 µM)
solubility ([1]; PEG 300/Ethanol/20 mM Meglumine 40%/10%/50% (final 10 mM), nominal pH 10.0, actual pH 6.9): 980 µg/mL (≈ 1980 µM)
solubility ([1]; PEG 300/Ethanol/50 mM Meglumine 40%/10%/50% (final 25 mM), nominal pH 8.0, actual pH 5.2): 160 µg/mL (≈ 324 µM)
solubility ([1]; PEG 300/Ethanol/50 mM Meglumine 40%/10%/50% (final 25 mM), nominal pH 9.5, actual pH 6.6): 90 µg/mL (≈ 182 µM)
solubility ([1]; PEG 300/Ethanol/50 mM Meglumine 40%/10%/50% (final 25 mM), nominal pH 10.0, actual pH 7.8): 360 µg/mL (≈ 729 µM)
solubility ([1]; PEG 300/Ethanol/100 mM Meglumine 40%/10%/50% (final 50 mM), nominal pH 8.0, actual pH 5.3): 90 µg/mL (≈ 182 µM)
solubility ([1]; PEG 300/Ethanol/100 mM Meglumine 40%/10%/50% (final 50 mM), nominal pH 8.5, actual pH 5.5): 100 µg/mL (≈ 202 µM)
solubility ([1]; PEG 300/Ethanol/100 mM Meglumine 40%/10%/50% (final 50 mM), nominal pH 9.0, actual pH 6.2): 100 µg/mL (≈ 202 µM)
pH after a 50-fold Dilution ([2]; Diethanolamine 5 mM pH 8, into Hartmann's pH 6.48 (Expt1)): 6.71
pH after a 50-fold Dilution ([2]; Diethanolamine 5 mM pH 8, into Hartmann's pH 6.60): 7.99
pH after a 50-fold Dilution ([2]; Diethanolamine 5 mM pH 8, into NaCl pH 4.59): 7.27
pH after a 50-fold Dilution ([2]; Diethanolamine 5 mM pH 8, into NaCl pH 6.82): 8.32
pH after a 50-fold Dilution ([2]; Diethanolamine 5 mM pH 8.5, into Hartmann's pH 6.48, Expt 2): 6.82
pH after a 50-fold Dilution ([2]; Diethanolamine 5 mM pH 9, into Hartmann's pH 6.48 (Expt1)): 7.54
pH after a 50-fold Dilution ([2]; Diethanolamine 5 mM pH 9, into Hartmann's pH 6.48, Expt 2): 7.29
pH after a 50-fold Dilution ([2]; Diethanolamine 5 mM pH 9, into NaCl pH 6.82): 8.65
pH after a 50-fold Dilution ([2]; Diethanolamine 5 mM pH 9.5, into Hartmann's pH 6.48 (Expt1)): 6.73
pH after a 50-fold Dilution ([2]; Diethanolamine 5 mM pH 9.5, into Hartmann's pH 6.48, Expt 2): 8.37
pH after a 50-fold Dilution ([2]; Diethanolamine 5 mM pH 9.5, into Hartmann's pH 6.60): 8.85
pH after a 50-fold Dilution ([2]; Diethanolamine 5 mM pH 9.5, into NaCl pH 4.59): 8.72
pH after a 50-fold Dilution ([2]; Diethanolamine 5 mM pH 9.5, into NaCl pH 6.82): 8.88
pH after a 50-fold Dilution ([2]; Diethanolamine 5 mM pH 10, into Hartmann's pH 6.48): 8.46
pH after a 50-fold Dilution ([2]; Diethanolamine 10 mM pH 9, into Hartmann's pH 6.48): 8.38
pH after a 50-fold Dilution ([2]; Diethanolamine 10 mM pH 9, into NaCl pH 4.59): 8.46
pH after a 50-fold Dilution ([2]; Diethanolamine 10 mM pH 10, into Hartmann's pH 6.48): 8.88
pH after a 50-fold Dilution ([2]; Diethanolamine 10 mM pH 10, into NaCl pH 6.82): 9.31
pH after a 50-fold Dilution ([2]; Meglumine 5 mM pH 8, into Hartmann's pH 6.48 (Expt1)): 6.66
pH after a 50-fold Dilution ([2]; Meglumine 5 mM pH 8, into Hartmann's pH 6.60): 6.55
pH after a 50-fold Dilution ([2]; Meglumine 5 mM pH 8, into NaCl pH 4.59): 6.56
pH after a 50-fold Dilution ([2]; Meglumine 5 mM pH 8, into NaCl pH 6.82): 8.21
pH after a 50-fold Dilution ([2]; Meglumine 5 mM pH 8.5, into Hartmann's pH 6.48, Expt 2): 6.64
pH after a 50-fold Dilution ([2]; Meglumine 5 mM pH 9, into Hartmann's pH 6.48 (Expt1)): 6.8
pH after a 50-fold Dilution ([2]; Meglumine 5 mM pH 9, into Hartmann's pH 6.48, Expt 2): 6.96
pH after a 50-fold Dilution ([2]; Meglumine 5 mM pH 9, into NaCl pH 6.82): 8.40
pH after a 50-fold Dilution ([2]; Meglumine 5 mM pH 9.5, into Hartmann's pH 6.48 (Expt1)): 6.93
pH after a 50-fold Dilution ([2]; Meglumine 5 mM pH 9.5, into Hartmann's pH 6.48, Expt 2): 7.68
pH after a 50-fold Dilution ([2]; Meglumine 5 mM pH 9.5, into Hartmann's pH 6.60): 8.49
pH after a 50-fold Dilution ([2]; Meglumine 5 mM pH 9.5, into NaCl pH 4.59): 8.04
pH after a 50-fold Dilution ([2]; Meglumine 5 mM pH 9.5, into NaCl pH 6.82): 8.71
pH after a 50-fold Dilution ([2]; Meglumine 5 mM pH 10, into Hartmann's pH 6.48): 8.32
pH after a 50-fold Dilution ([2]; Meglumine 10 mM pH 9, into Hartmann's pH 6.48): 7.37
pH after a 50-fold Dilution ([2]; Meglumine 10 mM pH 9, into NaCl pH 4.59): 6.35
pH after a 50-fold Dilution ([2]; Meglumine 10 mM pH 10, into Hartmann's pH 6.48): 8.98
pH after a 50-fold Dilution ([2]; Meglumine 10 mM pH 10, into NaCl pH 6.82): 9.54
hydrolysis on storage ([3]; refrigerated samples stored at 2-8° C., FIG. 3A): hydrolysis was not seen
physical stability (drug in solution) on storage ([3]; stored at 2-8° C.): remained in solution
hydrolysis on storage ([3]; stored at elevated temperatures (25° C./60% RH, 40° C./75% RH), FIGS. 3B, 3C): some hydrolysis
solubility (physchem; pH 5.3, aqueous buffer, Solubility): 10 µg/mL (≈ 20.2 µM)
solubility (physchem; pH 6.2, aqueous buffer, Solubility): 10 µg/mL (≈ 20.2 µM)
solubility (physchem; pH 6.6, water, Solubility): 70 µg/mL (≈ 142 µM)
solubility (physchem; pH 6.9): 60 µg/mL (≈ 121 µM)
solubility (physchem; pH 6.9, aqueous with cosolvent or surfactant or cyclodextrin, Solubility): 90 µg/mL (≈ 182 µM)
solubility (physchem; pH 7.1, aqueous buffer, Solubility): 10 µg/mL (≈ 20.2 µM)
solubility (physchem; pH 7.2, aqueous with cosolvent or surfactant or cyclodextrin, Solubility): 80 µg/mL (≈ 162 µM)
solubility (physchem; pH 7.6, aqueous with cosolvent or surfactant or cyclodextrin, Solubility): 600 µg/mL (≈ 1210 µM)
solubility (physchem; pH 7.7, aqueous with cosolvent or surfactant or cyclodextrin, Solubility): 10 µg/mL (≈ 20.2 µM)
solubility (physchem; pH 9.7): 860 µg/mL (≈ 1740 µM)
solubility (physchem; pH 9.7, aqueous buffer, Solubility): 860 µg/mL (≈ 1740 µM)
solubility (physchem; pH 9.7, aqueous with cosolvent or surfactant or cyclodextrin, Solubility): 18300 µg/mL (≈ 37000 µM)
solubility (physchem; pH 9.8): 11200 µg/mL (≈ 22700 µM)
solubility (physchem; pH 9.8, aqueous with cosolvent or surfactant or cyclodextrin, Solubility): 14600 µg/mL (≈ 29700 µM)
solubility (physchem; pH 10.1): 2350 µg/mL (≈ 4760 µM)
solubility (physchem; pH 10.1, aqueous buffer, Solubility): 2350 µg/mL (≈ 4760 µM)
solubility (physchem; pH 10.5): 15650 µg/mL (≈ 31700 µM)
solubility (physchem; pH 10.5, aqueous with cosolvent or surfactant or cyclodextrin, Solubility): 13400 µg/mL (≈ 27200 µM)
solubility (physchem; pH 10.7, aqueous buffer, Solubility): 8120 µg/mL (≈ 16400 µM)
solubility (physchem; pH 10.7, aqueous with cosolvent or surfactant or cyclodextrin, Solubility): 13900 µg/mL (≈ 28200 µM)
solubility at 24 h ([4]; 0.9% NaCl infusion fluid, pH 7.8, saline or isotonic, 0.9% NaCl 'as is' (pH 5.8), actual pH 7.80): 150 µg/mL (≈ 304 µM)
solubility at 24 h ([4]; 0.9% NaCl infusion fluid, saline or isotonic, 0.9% NaCl at pH 4.5, actual pH 7.72): 80 µg/mL (≈ 162 µM)
solubility at 24 h ([4]; 0.9% NaCl infusion fluid, saline or isotonic, 0.9% NaCl at pH 7.0, actual pH 7.75): 120 µg/mL (≈ 243 µM)
solubility at 24 h ([4]; pH 7.9, saline or isotonic, NaCl at pH 7.0 + PEG/EtOH, no buffer (50-fold dilution), actual pH 7.90): 140 µg/mL
solubility at 24 h ([4]; saline or isotonic, NaCl at pH 4.5 + PEG/EtOH, no buffer (50-fold dilution), actual pH 7.64): 100 µg/mL
solubility at 24 h ([4]; saline or isotonic, NaCl at pH 4.5 + PEG/EtOH/Diethanolamine 10 mM, pH 9.0 (50-fold dilution), actual pH 8.19): 130 µg/mL
solubility at 24 h ([4]; saline or isotonic, NaCl at pH 4.5 + PEG/EtOH/Meglumine 10 mM, pH 9.0 (50-fold dilution), actual pH 7.92): 150 µg/mL
solubility at 24 h ([4]; saline or isotonic, NaCl at pH 4.5 + PEG/EtOH/TRIS 10 mM, pH 9.0 (50-fold dilution), actual pH 7.89): 150 µg/mL
Structure (SMILES): COc1ccc(Cl)cc1C(=O)NCCc1ccc(S(=O)(=O)NC(=O)NC2CCCCC2)cc1 [Glibenclamide, N-p-(2-[5-Chloro-2-methoxybenzamido]ethyl) benzenesulfonyl-N′-cyclohexylurea]

— patent US10688111B2, “Liquid formulations of compounds active at sulfonylurea receptors” (Biogen Chesapeake LLC, priority 2008, dated 2020)
